Here are results for one compound from patent US10273233B2, “Inhibitors of influenza viruses replication” (Vertex Pharmaceuticals Incorporated, priority 2015, dated 2019).

A value given as a limit tells only on which side of the number the result lay.

Assay [1] deals with influenza type A (H1N1, H3N2, and H3N8) viral strains. It counts as cell-based.
Assay [2] deals with A/Hawaii/2/2006. Nature of the assay: 3-day CP assay in MDCK cells. In kind it is cell-based. The note with it: Influenza A virus.
The subject of assay [3] is A/New York/18/2009. Nature of the assay: 3-day CP assay in MDCK cells. In kind it is cell-based. The note with it: Influenza A virus.
Assay [4] relates to B/Mass/3/66. Nature of the assay: 3-day CP assay in MDCK cells. In kind it is cell-based. The note with it: Influenza B virus.
Assay [5] relates to influenza B. As to the kind of experiment: Influenza B mouse model, Compound (1) with oseltamivir. It counts as in vivo, Mice. As to the method:
The consequence of combining Compound (1) and oseltamivir was explored in the influenza B mouse model. Mice were dosed prophylactically with vehicle (10 mL/kg 0.5% MC), 10 mg/kg oseltamivir, or oseltamivir in combination with Compound (1) at 10 mg/kg, 30 mg/kg or 60 mg/kg BID and treatment continued for 10 days.

Usually EC50 stands for the concentration at which the effect is half-maximal. A low value points to greater potency. Consider `CC(C)(C)[C@@H](CC(=O)O)Nc1nc(-c2c[nH]c3ncc(F)cc23)ncc1F` [Compound (1)], for which the EC50 in assay [1] was 4.3 nM; in assay [2] it was 1.2 nM; in assay [3], 1.4 nM; in assay [4] it was > 10000 nM. The “survival benefit and protection from BW and lung function loss” value in assay [5] (10, 30 or 60 mg/kg BID Compound (1) in combination with oseltamivir 10 mg/kg BID, prophylactic, 10 days) was “the same survival benefit and protection from BW and lung function loss as oseltamivir treatment alone”. Besides, in assay [5] (Compound (1) added to oseltamivir therapy), the “interaction when added to oseltamivir therapy” value is given as “no negative interaction”. Further, the “activity against influenza B” value in assay [5] (mouse, in vivo) is listed as “lack of Compound (1) activity against influenza B”.
